Results as given in PubChem BioAssay (NCI).
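Results reflect a 48-hour exposure of cells in 96-well plates to compound at five concentrations. The concentration for 50% growth inhibition is given as GI50. TGI: total growth inhibition.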

What was measured:
Assay in all cases: NCI tumour cell line growth inhibition, 48 h
OVCAR-4 ovarian = test system: OVCAR-4 ovarian
OVCAR-8 ovarian = test system: OVCAR-8 ovarian
LOX IMVI melanoma = test system: LOX IMVI melanoma
SNB-19 CNS = test system: SNB-19 CNS
CAKI-1 renal = test system: CAKI-1 renal
BT-549 breast = test system: BT-549 breast
OVCAR-5 ovarian = test system: OVCAR-5 ovarian
COLO 205 colon = test system: COLO 205 colon
HCT-15 colon = test system: HCT-15 colon
HL-60(TB) leukemia = test system: HL-60(TB) leukemia
SK-MEL-2 melanoma = test system: SK-MEL-2 melanoma
HS 578T breast = test system: HS 578T breast
786-0 renal = test system: 786-0 renal
SF-268 CNS = test system: SF-268 CNS
MCF7 breast = test system: MCF7 breast
SN12C renal = test system: SN12C renal
KM12 colon = test system: KM12 colon
A498 renal = test system: A498 renal
UACC-257 melanoma = test system: UACC-257 melanoma
SK-OV-3 ovarian = test system: SK-OV-3 ovarian
UACC-62 melanoma = test system: UACC-62 melanoma
TK-10 renal = test system: TK-10 renal
SF-295 CNS = test system: SF-295 CNS
MDA-MB-435 = test system: MDA-MB-435
HOP-92 NSCLC = test system: HOP-92 NSCLC
A549 NSCLC = test system: A549 NSCLC
SW-620 colon = test system: SW-620 colon
ACHN renal = test system: ACHN renal
T-47D breast = test system: T-47D breast
HOP-62 NSCLC = test system: HOP-62 NSCLC
NCI-H522 lung = test system: NCI-H522 lung
IGROV1 ovarian = test system: IGROV1 ovarian
RPMI-8226 leukemia = test system: RPMI-8226 leukemia
K-562 leukemia = test system: K-562 leukemia
HCC-2998 colon = test system: HCC-2998 colon
NCI/ADR-RES ovarian = test system: NCI/ADR-RES ovarian
UO-31 renal = test system: UO-31 renal
PC-3 prostate = test system: PC-3 prostate
M14 melanoma = test system: M14 melanoma
HCT-116 colon = test system: HCT-116 colon
MOLT-4 leukemia = test system: MOLT-4 leukemia
CCRF-CEM leukemia = test system: CCRF-CEM leukemia
NCI-H23 lung = test system: NCI-H23 lung
SNB-75 CNS = test system: SNB-75 CNS
SK-MEL-28 melanoma = test system: SK-MEL-28 melanoma
DU-145 prostate = test system: DU-145 prostate
U251 CNS = test system: U251 CNS
EKVX NSCLC = test system: EKVX NSCLC
SR leukemia = test system: SR leukemia
SF-539 CNS = test system: SF-539 CNS
RXF 393 renal = test system: RXF 393 renal
HT29 colon = test system: HT29 colon
NCI-H226 lung = test system: NCI-H226 lung
MDA-MB-231 breast = test system: MDA-MB-231 breast
MALME-3M melanoma = test system: MALME-3M melanoma
NCI-H460 lung = test system: NCI-H460 lung

Work on CS(=O)(=O)Nc1cc(-c2ccc3ncc(C#N)c(NCc4ccccc4O)c3c2)cnc1Cl yielded a GI50 (OVCAR-4 ovarian) of 468 nM, a TGI (OVCAR-4 ovarian) of 6410 nM and a GI50 (OVCAR-8 ovarian) of 718 nM. For the same compound, the TGI (OVCAR-8 ovarian) was 16800 nM, the GI50 (LOX IMVI melanoma) was 397 nM and the TGI (LOX IMVI melanoma) was 2180 nM. It also gave a GI50 (SNB-19 CNS) of 507 nM, a TGI (SNB-19 CNS) of 15100 nM and a GI50 (CAKI-1 renal) of 325 nM. The TGI (CAKI-1 renal) was 2910 nM, the GI50 (BT-549 breast) was 167 nM and the TGI (BT-549 breast) was 1340 nM. For the same compound, the GI50 (OVCAR-5 ovarian) was 1330 nM, the TGI (OVCAR-5 ovarian) was 19000 nM and the GI50 (COLO 205 colon) was 674 nM. It also gave a TGI (COLO 205 colon) of 2260 nM, a GI50 (HCT-15 colon) of 516 nM and a TGI (HCT-15 colon) of 12000 nM. The GI50 (HL-60(TB) leukemia) was 808 nM, the TGI (HL-60(TB) leukemia) was 21700 nM and the GI50 (SK-MEL-2 melanoma) was 175 nM. It also gave a TGI (SK-MEL-2 melanoma) of 554 nM, a GI50 (HS 578T breast) of 118 nM and a TGI (HS 578T breast) of 612 nM. The GI50 (786-0 renal) was 693 nM, the TGI (786-0 renal) was over 100000 nM and the GI50 (SF-268 CNS) was 248 nM. For the same compound, the TGI (SF-268 CNS) was 3120 nM, the GI50 (MCF7 breast) was 288 nM and the TGI (MCF7 breast) was 9270 nM. The GI50 (SN12C renal) was 450 nM, the TGI (SN12C renal) was over 65000 nM and the GI50 (KM12 colon) was 652 nM. For the same compound, the TGI (KM12 colon) was 7060 nM, the GI50 (A498 renal) was 227 nM and the TGI (A498 renal) was 835 nM. For the same compound, the GI50 (UACC-257 melanoma) was 736 nM, the TGI (UACC-257 melanoma) was 7060 nM and the GI50 (SK-OV-3 ovarian) was 612 nM. For the same compound, the TGI (SK-OV-3 ovarian) was 3680 nM, the GI50 (UACC-62 melanoma) was 282 nM and the TGI (UACC-62 melanoma) was 2580 nM. It also gave a GI50 (TK-10 renal) of 375 nM, a TGI (TK-10 renal) of 3420 nM and a GI50 (SF-295 CNS) of 681 nM. It also gave a TGI (SF-295 CNS) of 5190 nM, a GI50 (MDA-MB-435) of 539 nM and a TGI (MDA-MB-435) of 9850 nM. The GI50 (HOP-92 NSCLC) was 117 nM, the TGI (HOP-92 NSCLC) was 725 nM and the GI50 (A549 NSCLC) was 1960 nM. The TGI (A549 NSCLC) was 13000 nM, the GI50 (SW-620 colon) was 470 nM and the TGI (SW-620 colon) was 6960 nM. It also gave a GI50 (ACHN renal) of 1700 nM, a TGI (ACHN renal) of over 63000 nM and a GI50 (T-47D breast) of 122 nM. It also gave a TGI (T-47D breast) of 4970 nM, a GI50 (HOP-62 NSCLC) of 480 nM and a TGI (HOP-62 NSCLC) of 13300 nM. It also gave a GI50 (NCI-H522 lung) of 460 nM, a TGI (NCI-H522 lung) of 6260 nM and a GI50 (IGROV1 ovarian) of 229 nM. It also gave a TGI (IGROV1 ovarian) of 1290 nM, a GI50 (RPMI-8226 leukemia) of 609 nM and a TGI (RPMI-8226 leukemia) of 3390 nM. The GI50 (K-562 leukemia) was 465 nM, the TGI (K-562 leukemia) was over 100000 nM and the GI50 (HCC-2998 colon) was 745 nM. It also gave a TGI (HCC-2998 colon) of 6510 nM, a GI50 (NCI/ADR-RES ovarian) of 3090 nM and a TGI (NCI/ADR-RES ovarian) of over 100000 nM. The GI50 (UO-31 renal) was 417 nM, the TGI (UO-31 renal) was over 25900 nM and the GI50 (PC-3 prostate) was 531 nM. It also gave a TGI (PC-3 prostate) of 13200 nM, a GI50 (M14 melanoma) of 532 nM and a TGI (M14 melanoma) of 10900 nM. For the same compound, the GI50 (HCT-116 colon) was 408 nM, the TGI (HCT-116 colon) was 2960 nM and the GI50 (MOLT-4 leukemia) was 418 nM. The TGI (MOLT-4 leukemia) was over 100000 nM, the GI50 (CCRF-CEM leukemia) was 243 nM and the TGI (CCRF-CEM leukemia) was over 100000 nM. The GI50 (NCI-H23 lung) was 600 nM, the TGI (NCI-H23 lung) was 15800 nM and the GI50 (SNB-75 CNS) was under 37.8 nM. The TGI (SNB-75 CNS) was 743 nM, the GI50 (SK-MEL-28 melanoma) was 387 nM and the TGI (SK-MEL-28 melanoma) was 7380 nM. For the same compound, the GI50 (DU-145 prostate) was 613 nM, the TGI (DU-145 prostate) was 12400 nM and the GI50 (U251 CNS) was 300 nM. For the same compound, the GI50 (EKVX NSCLC) was 1200 nM, the TGI (EKVX NSCLC) was 7100 nM and the GI50 (SR leukemia) was 231 nM. For the same compound, the TGI (SR leukemia) was over 100000 nM, the GI50 (SF-539 CNS) was 400 nM and the TGI (SF-539 CNS) was 3200 nM. The GI50 (RXF 393 renal) was 212 nM, the TGI (RXF 393 renal) was 1280 nM and the GI50 (HT29 colon) was 1090 nM. For the same compound, the TGI (HT29 colon) was 8630 nM, the GI50 (NCI-H226 lung) was 908 nM and the TGI (NCI-H226 lung) was 32200 nM. For the same compound, the GI50 (MDA-MB-231 breast) was 585 nM, the TGI (MDA-MB-231 breast) was 4040 nM and the GI50 (MALME-3M melanoma) was 184 nM. For the same compound, the TGI (MALME-3M melanoma) was 1150 nM, the GI50 (NCI-H460 lung) was 1420 nM and the TGI (NCI-H460 lung) was 18400 nM.
